Results published in PMC8161026, “Synthesis and Anticancer Activity Evaluation of 5-[2-Chloro-3-(4-nitrophenyl)-2-propenylidene]-4-thiazolidinones” (Molecules, 2021).

What was measured:
[1] = system: HL-60(TB); conditions: for TGI: HL-60(TB) (Leukemia), 48 h, SRB
[2] = system: K-562; conditions: for TGI: K-562 (Leukemia), 48 h, SRB
[3] = system: SR; conditions: for TGI: SR (Leukemia), 48 h, SRB
[4] = system: NCI-H23; conditions: NCI-H23 (Non-Small Cell Lung Cancer), 48 h, SRB
[5] = system: KM12; conditions: KM12 (Colon Cancer), 48 h, SRB
[6] = system: SW-620; conditions: SW-620 (Colon Cancer), 48 h, SRB
[7] = system: U251; conditions: U251 (CNS Cancer), 48 h, SRB
[8] = system: LOX IMVI; conditions: LOX IMVI (Melanoma), 48 h, SRB
[9] = system: SK-MEL-2; conditions: SK-MEL-2 (Melanoma), 48 h, SRB
[10] = system: K-562; assay: cells; conditions: Homo sapiens, K562, 48 h; for CC50: read-out: LC50
[11] = system: DU-145; conditions: DU-145 (Prostate Cancer), 48 h, SRB
[12] = system: SR; assay: cells; conditions: Homo sapiens, 48 h; for CC50: read-out: LC50
[13] = system: NCI-H23; assay: cells; conditions: Homo sapiens, NCI-H23, 48 h; for CC50: read-out: LC50
[14] = system: KM12; assay: cells; conditions: Homo sapiens, KM12, 48 h; for CC50: read-out: LC50
[15] = system: SK-MEL-2; assay: cells; conditions: Homo sapiens, SK-MEL-2, 48 h
[16] = system: 786-0; assay: cells; conditions: Homo sapiens, 786-0, 48 h; for CC50: read-out: LC50
[17] = system: NCI-H226; assay: NCI DTP 60 cell line screen, SRB
[18] = system: NCI-H522; assay: NCI DTP 60 cell line screen, SRB
[19] = system: HCT-15; assay: NCI DTP 60 cell line screen, SRB; conditions: for TGI: HCT-15 (Colon Cancer), 48 h, SRB; for GI50 / CC50: Homo sapiens, HCT-15, 48 h; for CC50: read-out: LC50
[20] = system: SF-268; assay: NCI DTP 60 cell line screen, SRB; conditions: for GI50 / CC50: Homo sapiens, SF-268, 48 h; for CC50: read-out: LC50; for TGI: SF-268 (CNS Cancer), 48 h, SRB
[21] = system: SF-539; assay: NCI DTP 60 cell line screen, SRB; conditions: for GI50 / CC50: Homo sapiens, SF-539, 48 h; for CC50: read-out: LC50; for TGI: SF-539 (CNS Cancer), 48 h, SRB
[22] = system: MALME-3M; assay: NCI DTP 60 cell line screen, SRB; conditions: 48 h; for GI50 / CC50: Homo sapiens, Malme-3M; for CC50: read-out: LC50; for TGI: MALME-3M (Melanoma), SRB
[23] = system: SK-MEL-5; assay: NCI DTP 60 cell line screen, SRB; conditions: for GI50 / CC50: Homo sapiens, SK-MEL-5, 48 h; for CC50: read-out: LC50; for TGI: SK-MEL-5 (Melanoma), 48 h, SRB
[24] = system: UACC-62; assay: NCI DTP 60 cell line screen, SRB; conditions: for GI50 / CC50: Homo sapiens, UACC-62, 48 h; for CC50: read-out: LC50; for TGI: UACC-62 (Melanoma), 48 h, SRB
[25] = system: OVCAR-5; assay: NCI DTP 60 cell line screen, SRB
[26] = system: SK-OV-3; assay: NCI DTP 60 cell line screen, SRB; conditions: for GI50 / CC50: Homo sapiens, SK-OV-3, 48 h; for CC50: read-out: LC50; for TGI: SK-OV-3 (Ovarian Cancer), 48 h, SRB
[27] = system: CAKI-1; assay: NCI DTP 60 cell line screen, SRB; conditions: for TGI: CAKI-1 (Renal Cancer), 48 h, SRB; for GI50 / CC50: Homo sapiens, CAKI-1, 48 h; for CC50: read-out: LC50
[28] = system: TK-10; assay: NCI DTP 60 cell line screen, SRB; conditions: for GI50 / CC50: Homo sapiens, TK-10, 48 h; for CC50: read-out: LC50; for TGI: TK-10 (Renal Cancer), 48 h, SRB
[29] = system: NCI/ADR-Res; assay: NCI DTP 60 cell line screen, SRB; conditions: 48 h; for GI50 / CC50: Homo sapiens, NCI/ADR-RES; for CC50: read-out: LC50; for TGI: NCI/ADR-Res (Breast Cancer), SRB
[30] = system: HS 578T; assay: NCI DTP 60 cell line screen, SRB; conditions: 48 h
[31] = system: BT-549; assay: NCI DTP 60 cell line screen, SRB; conditions: for TGI: BT-549 (Breast Cancer), 48 h, SRB; for GI50 / CC50: Homo sapiens, BT-549, 48 h; for CC50: read-out: LC50
[32] = system: SNB-75; conditions: SNB-75 (CNS Cancer), 48 h, SRB

O=C1/C(=C/C(Cl)=C/c2ccc([N+](=O)[O-])cc2)SC(=S)N1/N=C\C(Cl)=C\c1ccc([N+](=O)[O-])cc1 [Compound 2c, 5-[(Z,2Z)-2-Chloro-3-(4-nitrophenyl)-2-propenylidene]-3-[(Z,2Z)-2-chloro-3-(4-nitrophenyl)-2-propenylideneamino]-2-thioxo-4-thiazolidinone]
TGI [1]: 23.3 µM | TGI [2]: 25.5 µM | TGI [3]: 12.0 µM | TGI [4]: 31.6 µM | TGI [5]: 59.1 µM | TGI [6]: > 100 µM | TGI [7]: 24.5 µM | TGI [8]: 28.8 µM | TGI [9]: 36.4 µM | GI50 [10]: 3.98 µM | CC50 [10]: > 100 µM | TGI [11]: 52.8 µM | GI50 [12]: 3.67 µM | CC50 [12]: > 100 µM | GI50 [13]: 16.6 µM | CC50 [13]: 60.3 µM | GI50 [14]: 20.6 µM | CC50 [14]: > 100 µM | GI50 [15]: 19 µM | CC50 ([15]; read-out: LC50): 69.8 µM | GI50 [16]: 12.1 µM | CC50 [16]: 77.8 µM | GI50 ([17]; Homo sapiens, NCI-H226, 48 h): 12 µM | CC50 ([17]; Homo sapiens, NCI-H226, 48 h, read-out: LC50): 84.2 µM | TGI ([17]; NCI-H226 (Non-Small Cell Lung Cancer), 48 h, SRB): 31.8 µM | GI50 ([18]; Homo sapiens, NCI-H522, 48 h): 16.3 µM | CC50 ([18]; Homo sapiens, NCI-H522, 48 h, read-out: LC50): 66.2 µM | TGI ([18]; NCI-H522 (Non-Small Cell Lung Cancer), 48 h, SRB): 32.9 µM | TGI [19]: 33.0 µM | GI50 [19]: 16.6 µM | CC50 [19]: 65.7 µM | GI50 [20]: 17 µM | CC50 [20]: > 100 µM | TGI [20]: 41.3 µM | GI50 [21]: 25.9 µM | CC50 [21]: > 100 µM | TGI [21]: 57.4 µM | GI50 [22]: 25 µM | CC50 [22]: > 100 µM | TGI [22]: 60.4 µM | GI50 [23]: 19.4 µM | CC50 [23]: 75.6 µM | TGI [23]: 38.3 µM | GI50 [24]: 13.6 µM | CC50 [24]: 58 µM | TGI [24]: 28.1 µM | GI50 ([25]; Homo sapiens, OVCAR-5, 48 h): 15.1 µM | CC50 ([25]; Homo sapiens, OVCAR-5, 48 h, read-out: LC50): 86.6 µM | TGI ([25]; OVCAR-5 (Ovarian Cancer), 48 h, SRB): 36.2 µM | GI50 [26]: 59.6 µM | CC50 [26]: > 100 µM | TGI [26]: > 100 µM | TGI [27]: 11.2 µM | GI50 [27]: 3.11 µM | CC50 [27]: > 100 µM | GI50 [28]: 28 µM | CC50 [28]: > 100 µM | TGI [28]: 69.6 µM | GI50 [29]: 6.55 µM | CC50 [29]: 61.7 µM | TGI [29]: 20.8 µM | TGI ([30]; HS 578T (Breast Cancer), SRB): > 100 µM | GI50 ([30]; Homo sapiens, Hs-578T): 29.5 µM | CC50 ([30]; Homo sapiens, Hs-578T, read-out: LC50): > 100 µM | TGI [31]: 76.0 µM | GI50 [31]: 27.3 µM | CC50 [31]: > 100 µM

O=C1/C(=C/C(Cl)=C/c2ccc([N+](=O)[O-])cc2)SC(=S)N1c1ccc(O)cc1 [Compound 2f, 5-[(Z,2Z)-2-Chloro-3-(4-nitrophenyl)-2-propenylidene]-3-(4-hydroxyphenyl)-2-thioxo-4-thiazolidinone]
TI (Therapeutic Index) ([1]; GI50 (normal blood lymphocyte)/GI50 (HL-60(TB))): >206.19 | TGI [1]: 4.48 µM | TI (Therapeutic Index) ([2]; GI50 (normal blood lymphocyte)/GI50 (K-562)): >191.94 | TGI [2]: > 100 µM | TI (Therapeutic Index) ([3]; GI50 (normal blood lymphocyte)/GI50 (SR)): >10,000 | TGI [3]: 0.138 µM | TGI [4]: 3.11 µM | TGI [5]: > 100 µM | TGI [6]: 1.52 µM | TGI [32]: > 100 µM | TGI [7]: 3.06 µM | TGI [8]: 3.70 µM | GI50 [10]: 0.521 µM | CC50 [10]: > 100 µM | TGI [11]: 5.81 µM | GI50 [12]: 0.01 µM | CC50 [12]: > 100 µM | GI50 [13]: 1.48 µM | CC50 [13]: 6.52 µM | GI50 [14]: 2.85 µM | CC50 [14]: > 100 µM | GI50 [16]: 2.04 µM | CC50 [16]: 7.18 µM | TGI [19]: > 100 µM | GI50 [19]: 0.409 µM | CC50 [19]: > 100 µM | GI50 [20]: 2.55 µM | CC50 [20]: > 100 µM | TGI [20]: 34.5 µM | GI50 [21]: 0.0252 µM | CC50 [21]: 28.1 µM | TGI [21]: 0.242 µM | GI50 [22]: 6.53 µM | CC50 [22]: 94.5 µM | TGI [22]: 27.6 µM | GI50 [23]: < 0.01 µM | CC50 [23]: 3.41 µM | TGI [23]: < 0.01 µM | GI50 [24]: 1.69 µM | CC50 [24]: 8.78 µM | TGI [24]: 3.85 µM | GI50 [26]: 10.2 µM | CC50 [26]: > 100 µM | TGI [26]: 41.5 µM | TGI [27]: > 100 µM | GI50 [27]: 4.44 µM | CC50 [27]: > 100 µM | GI50 [28]: 4.87 µM | CC50 [28]: > 100 µM | TGI [28]: 29.0 µM | GI50 [29]: 2.17 µM | CC50 [29]: > 100 µM | TGI [29]: 6.13 µM | TGI [31]: 7.71 µM | GI50 [31]: 1.55 µM | CC50 [31]: > 100 µM
